Data on eight compounds can be found in ChEMBL document CHEMBL5584255, “Synthesis and antibacterial medicinal evaluation of carbothioamido hydrazonyl thiazolylquinolone with multitargeting antimicrobial potential to combat increasingly global resistance” (Eur J Med Chem, 2024).

Common to all, as to type: functional
The subject of test [1] is Staphylococcus aureus. In words: Antibacterial activity against Staphylococcus aureus ATCC 25923 by microbroth dilution method.
The next test deals with Candida tropicalis. In words: Antifungal activity against drug-resistant Candida tropicalis.
Another test has as its system Klebsiella pneumoniae. Kind of test: Antibacterial activity against Klebsiella pneumoniae by microbroth dilution method. Background: In broth dilution the organism is exposed to a series of concentrations in liquid medium.
The subject of test [2] is Staphylococcus aureus. In words: Antibacterial activity against drug-resistant Staphylococcus aureus by microbroth dilution method.
The subject of test [3] is Candida albicans. In words: Antifungal activity against Candida albicans ATCC 90023.
Test [4] deals with Staphylococcus aureus. Kind of test: Antibacterial activity against methicillin-resistant Staphylococcus aureus N315 by microbroth dilution method.
Test [5] deals with Escherichia coli. In words: Antibacterial activity against drug-resistant Escherichia coli by microbroth dilution method.
Test [6] concerns Staphylococcus aureus. In words: Antibacterial activity against Staphylococcus aureus ATCC 29213 by microbroth dilution method.
Another test concerns Candida parapsilosis. In words: Antifungal activity against Candida parapsilosis ATCC 22019. Conditions: Lodderomyces parapsilosis.
Another test relates to Aspergillus fumigatus. Kind of test: Antifungal activity against Aspergillus fumigatus.
Test [7] has as its system Pseudomonas aeruginosa. Kind of test: Antibacterial activity against Pseudomonas aeruginosa ATCC 27853 by microbroth dilution method.
The subject of test [8] is Candida albicans. In words: Antifungal activity against drug-resistant Candida albicans.
Test [9] concerns Escherichia coli. Kind of test: Antibacterial activity against Escherichia coli ATCC 25922 by microbroth dilution method.
Test [10] concerns Pseudomonas aeruginosa. In words: Antibacterial activity against Pseudomonas aeruginosa by microbroth dilution method.
In a further test the test system is Acinetobacter baumannii. Kind of test: Antibacterial activity against Acinetobacter baumannii by microbroth dilution method.
The next test concerns Enterococcus faecalis. In words: Antibacterial activity against drug-resistant Enterococcus faecalis by microbroth dilution method.

Values after ≈ are worked out from the molar mass of the structure shown.

By MIC is commonly meant the smallest concentration in the dilution series that meets the test's criterion for growth inhibition. A higher MIC goes with a less susceptible organism. As to `C/C(Cn1cc(-c2csc(N)n2)c(=O)c2cccc(F)c21)=N\NC(N)=S`, the MIC worked out at 41 µM (≈ 16 µg/mL) in the test with Staphylococcus aureus [1]; 656 µM (≈ 256 µg/mL) in the test on Candida tropicalis; 328 µM (≈ 128 µg/mL) against Klebsiella pneumoniae; 21 µM (≈ 8.2 µg/mL) against Staphylococcus aureus [2]; 328 µM (≈ 128 µg/mL) in the test with Candida albicans [3]; 41 µM (≈ 16 µg/mL) in the test on Staphylococcus aureus [4]. In addition, the MIC with Escherichia coli [5] worked out at 656 µM (≈ 256 µg/mL); with Staphylococcus aureus [6], 21 µM (≈ 8.2 µg/mL); in the test on Candida parapsilosis, 656 µM (≈ 256 µg/mL); in the test with Aspergillus fumigatus, 1310 µM (≈ 513 µg/mL); with Pseudomonas aeruginosa [7] it was 328 µM (≈ 128 µg/mL); in the test with Candida albicans [8], 656 µM (≈ 256 µg/mL). Also, the MIC is 328 µM (≈ 128 µg/mL) in the test on Escherichia coli [9], 656 µM (≈ 256 µg/mL) against Pseudomonas aeruginosa [10], 656 µM (≈ 256 µg/mL) against Acinetobacter baumannii and 328 µM (≈ 128 µg/mL) with Enterococcus faecalis.

Take `CC(=O)Cn1cc(-c2csc(N)n2)c(=O)c2cc(F)cc(F)c21`: the MIC against Staphylococcus aureus [1] is 382 µM (≈ 128 µg/mL); with Candida tropicalis it was 382 µM (≈ 128 µg/mL); against Klebsiella pneumoniae, 764 µM (≈ 256 µg/mL); in the test on Staphylococcus aureus [2] it was 764 µM (≈ 256 µg/mL); against Candida albicans [3], 382 µM (≈ 128 µg/mL); against Staphylococcus aureus [4], 382 µM (≈ 128 µg/mL). Moreover, the MIC in the test on Escherichia coli [5] stood at 382 µM (≈ 128 µg/mL); in the test with Staphylococcus aureus [6], 382 µM (≈ 128 µg/mL); against Candida parapsilosis, 764 µM (≈ 256 µg/mL); in the test with Aspergillus fumigatus, 382 µM (≈ 128 µg/mL); against Pseudomonas aeruginosa [7] it was 191 µM (≈ 64 µg/mL); against Candida albicans [8], 764 µM (≈ 256 µg/mL). For the same compound, the MIC against Escherichia coli [9], in the test with Pseudomonas aeruginosa [10], against Acinetobacter baumannii and in the test with Enterococcus faecalis was 382 µM (≈ 128 µg/mL) throughout.

Regarding `Nc1nc(-c2c[nH]c3cc(Cl)c(F)cc3c2=O)cs1`, the MIC was 217 µM (≈ 64.2 µg/mL) against Staphylococcus aureus [1]; 217 µM (≈ 64.2 µg/mL) against Candida tropicalis; 868 µM (≈ 257 µg/mL) against Klebsiella pneumoniae; 868 µM (≈ 257 µg/mL) in the test on Staphylococcus aureus [2]; 109 µM (≈ 32.2 µg/mL) against Candida albicans [3]; 1740 µM (≈ 513 µg/mL) against Staphylococcus aureus [4]. Besides, the MIC against Escherichia coli [5] was found to be 434 µM (≈ 128 µg/mL); against Staphylococcus aureus [6], 434 µM (≈ 128 µg/mL); in the test on Candida parapsilosis, 1740 µM (≈ 513 µg/mL); against Aspergillus fumigatus, 217 µM (≈ 64.2 µg/mL); against Pseudomonas aeruginosa [7], 868 µM (≈ 257 µg/mL); against Candida albicans [8], 217 µM (≈ 64.2 µg/mL). Moreover, the MIC in the test with Escherichia coli [9] turned out to be 217 µM (≈ 64.2 µg/mL); in the test on Pseudomonas aeruginosa [10] it was 868 µM (≈ 257 µg/mL); in the test with Acinetobacter baumannii, 868 µM (≈ 257 µg/mL); against Enterococcus faecalis, 868 µM (≈ 257 µg/mL).

As to `CC(=O)Cn1cc(C(C)=O)c(=O)c2cc(F)c(Cl)cc21`, the MIC was 868 µM (≈ 257 µg/mL) with Staphylococcus aureus [1]; 1740 µM (≈ 513 µg/mL) against Candida tropicalis; 868 µM (≈ 257 µg/mL) with Klebsiella pneumoniae; 1740 µM (≈ 513 µg/mL) against Staphylococcus aureus [2]; 868 µM (≈ 257 µg/mL) in the test with Candida albicans [3]; 868 µM (≈ 257 µg/mL) with Staphylococcus aureus [4]. The MIC turned out to be 868 µM (≈ 257 µg/mL) in the test with Escherichia coli [5]; 1740 µM (≈ 513 µg/mL) against Staphylococcus aureus [6]; 217 µM (≈ 64.2 µg/mL) against Candida parapsilosis; 868 µM (≈ 257 µg/mL) with Aspergillus fumigatus; 434 µM (≈ 128 µg/mL) against Pseudomonas aeruginosa [7]; 1740 µM (≈ 513 µg/mL) against Candida albicans [8]. The MIC came out at 868 µM (≈ 257 µg/mL) in the test on Escherichia coli [9], 434 µM (≈ 128 µg/mL) against Pseudomonas aeruginosa [10], 868 µM (≈ 257 µg/mL) in the test with Acinetobacter baumannii and 868 µM (≈ 257 µg/mL) against Enterococcus faecalis.

As to `Cc1nc(-c2c[nH]c3ccc(F)cc3c2=O)cs1`, the MIC is 1970 µM (≈ 513 µg/mL) in the test on Staphylococcus aureus [1]; 985 µM (≈ 256 µg/mL) in the test with Candida tropicalis; 1970 µM (≈ 513 µg/mL) against Klebsiella pneumoniae; 1970 µM (≈ 513 µg/mL) against Staphylococcus aureus [2]; 492 µM (≈ 128 µg/mL) with Candida albicans [3]; 1970 µM (≈ 513 µg/mL) against Staphylococcus aureus [4]. In addition, the MIC in the test on Escherichia coli [5] amounted to 1970 µM (≈ 513 µg/mL); against Staphylococcus aureus [6], 985 µM (≈ 256 µg/mL); in the test with Candida parapsilosis, 492 µM (≈ 128 µg/mL); against Aspergillus fumigatus it was 985 µM (≈ 256 µg/mL); against Pseudomonas aeruginosa [7], 492 µM (≈ 128 µg/mL); with Candida albicans [8], 985 µM (≈ 256 µg/mL). Further, the MIC in the test with Escherichia coli [9] is 492 µM (≈ 128 µg/mL); in the test with Pseudomonas aeruginosa [10], 985 µM (≈ 256 µg/mL); in the test with Acinetobacter baumannii, 492 µM (≈ 128 µg/mL); against Enterococcus faecalis it was 985 µM (≈ 256 µg/mL).

On to `C/C(Cn1cc(-c2csc(N)n2)c(=O)c2cc(F)ccc21)=N\NC(N)=S`, for which the MIC against Staphylococcus aureus [1] amounted to 82 µM (≈ 32 µg/mL); against Candida tropicalis, 328 µM (≈ 128 µg/mL); against Klebsiella pneumoniae it was 656 µM (≈ 256 µg/mL); in the test with Staphylococcus aureus [2] it was 82 µM (≈ 32 µg/mL); against Candida albicans [3], 328 µM (≈ 128 µg/mL); in the test with Staphylococcus aureus [4], 164 µM (≈ 64 µg/mL). Further, the MIC against Escherichia coli [5] turned out to be 328 µM (≈ 128 µg/mL); against Staphylococcus aureus [6] it was 82 µM (≈ 32 µg/mL); in the test on Candida parapsilosis, 656 µM (≈ 256 µg/mL); against Aspergillus fumigatus, 656 µM (≈ 256 µg/mL); in the test with Pseudomonas aeruginosa [7], 656 µM (≈ 256 µg/mL); with Candida albicans [8] it was 328 µM (≈ 128 µg/mL). The MIC against Escherichia coli [9] came to 164 µM (≈ 64 µg/mL); with Pseudomonas aeruginosa [10], 656 µM (≈ 256 µg/mL); in the test on Acinetobacter baumannii it was 328 µM (≈ 128 µg/mL); against Enterococcus faecalis, 328 µM (≈ 128 µg/mL).

For the compound `Cc1nc(-c2c[nH]c3cc(F)c(F)cc3c2=O)cs1`, the MIC against Staphylococcus aureus [1] is 460 µM (≈ 128 µg/mL); in the test on Candida tropicalis, 921 µM (≈ 256 µg/mL); against Klebsiella pneumoniae it was 1840 µM (≈ 513 µg/mL); against Staphylococcus aureus [2], 1840 µM (≈ 513 µg/mL); against Candida albicans [3] it was 115 µM (≈ 32 µg/mL); against Staphylococcus aureus [4], 460 µM (≈ 128 µg/mL). The MIC in the test on Escherichia coli [5] is 1840 µM (≈ 513 µg/mL); with Staphylococcus aureus [6], 921 µM (≈ 256 µg/mL); in the test on Candida parapsilosis, 1840 µM (≈ 513 µg/mL); with Aspergillus fumigatus it was 921 µM (≈ 256 µg/mL); against Pseudomonas aeruginosa [7] it was 460 µM (≈ 128 µg/mL); in the test on Candida albicans [8] it was 460 µM (≈ 128 µg/mL). For the same compound, the MIC against Escherichia coli [9] is 460 µM (≈ 128 µg/mL); with Pseudomonas aeruginosa [10] it was 921 µM (≈ 256 µg/mL); against Acinetobacter baumannii, 1840 µM (≈ 513 µg/mL); with Enterococcus faecalis it was 460 µM (≈ 128 µg/mL).

`OC(Cn1cncn1)(Cn1cncn1)c1ccc(F)cc1F` [FLUCONAZOLE]: the MIC in the test with Candida tropicalis was 25 µM (≈ 7.66 µg/mL); against Candida albicans [3], 3 µM (≈ 0.919 µg/mL); against Candida parapsilosis, 6 µM (≈ 1.84 µg/mL); in the test on Aspergillus fumigatus, 802 µM (≈ 246 µg/mL); against Candida albicans [8], 13 µM (≈ 3.98 µg/mL).
